Results published in patent US4921858A, “7-deazaguanines as immunomodulators” (Warner-Lambert Company, priority 1989, dated 1990).

Key:
rejection of skin graft = conditions: dogs; cited from earlier work
[1] = target: T1, purine nucleoside phosphorylase (PNP-4) (Homo sapiens, UniProt P00491); assay: PNP-4 enzyme assay, radiochemical, formation of [14C]hypoxanthine from [14C]inosine; format: biochemical; conditions: human erythrocyte enzyme
T1 construct: using human erythrocyte as the enzyme source; from tissue; host or cells: human erythrocyte
T1 sequence (P00491 1-289): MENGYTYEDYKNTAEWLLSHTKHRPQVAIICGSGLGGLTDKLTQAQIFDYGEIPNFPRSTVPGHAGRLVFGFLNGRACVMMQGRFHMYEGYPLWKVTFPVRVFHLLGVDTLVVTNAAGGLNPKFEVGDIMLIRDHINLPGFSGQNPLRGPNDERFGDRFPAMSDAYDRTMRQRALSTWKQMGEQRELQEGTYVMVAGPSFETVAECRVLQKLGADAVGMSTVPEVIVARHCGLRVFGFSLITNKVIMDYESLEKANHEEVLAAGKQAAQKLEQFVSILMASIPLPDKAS
Experimental: In the purine nucleoside phosphorylase (PNP-4) enzyme assay, an IC50 is achieved at a dose of 1.0 micromoles on a selected compound of the present invention. PNP-4 activity for the compound of formula I is measured radiochemically by measuring the formation of [^14 --C]hypoxanthine from [^14 --C]inosine [Biomedicine, 33, 39 (1980)] using human erythrocyte as the enzyme source.

T-cells = assay: HTBA-1 T-cell cytotoxicity in the presence of 2'-deoxyguanosine; format: cell-based
B-cell = assay: HTBA-1 B-cell toxicity in the presence of 2'-deoxyguanosine; format: cell-based; conditions: in the presence of the same amount of 2'-deoxyguanosine

IC50 [1]	Structure (SMILES)	inhibiting rejection of skin graft (rejection of skin graft)	IC50 (T-cells; T-cell, + 10 μM 2'-deoxyguanosine, read-out: HTBA-1 T-Cell + 10 μM 2'-d Gua, IC50)	selective cytotoxicity for T-cells (T-cells; in the presence of 2'-deoxyguanosine, at a similar concentration range)	toxicity to B-cell (B-cell)
	Nc1nc2c(nc(N)n2[C@@H]2O[C@H](CO)[C@@H](O)[C@H]2O)c(=O)[nH]1 [8-Aminoguanosine]	efficacious for inhibiting rejection of skin graft in dogs			
1000 nM	Nc1nc2c(ccn2Cc2cccs2)c(=O)[nH]1 [Example 2, 2-Amino-7-(2-thienylmethyl)-4-pyrrolo[2,3-d]pyrimidone]		2300 nM	selectively cytotoxic for T-cells	nontoxic to B-cell
